Results reported in US20090209536A1, “AMINOQUINAZOLINE CANNABINOID RECEPTOR MODULATORS FOR TREATMENT OF DISEASE” (KALYPSYS, INC., priority 2007, published 2009).

Columns and labels:
[1] = molecular target: T1, human cannabinoid receptor type 1 (Homo sapiens, UniProt P21554); assay: Human CB1 Radioligand Binding Assay (basis of selectivity, CB2 vs. CB1); conditions: CB1: HEK 293 EBNA cells expressing human CB1; CB2: CHO CB2 membranes
T1 construct: purchased Perkin Elmer RBHCB1M; host or cells: HEK 293 EBNA cells
T1 sequence (P21554 whole entry): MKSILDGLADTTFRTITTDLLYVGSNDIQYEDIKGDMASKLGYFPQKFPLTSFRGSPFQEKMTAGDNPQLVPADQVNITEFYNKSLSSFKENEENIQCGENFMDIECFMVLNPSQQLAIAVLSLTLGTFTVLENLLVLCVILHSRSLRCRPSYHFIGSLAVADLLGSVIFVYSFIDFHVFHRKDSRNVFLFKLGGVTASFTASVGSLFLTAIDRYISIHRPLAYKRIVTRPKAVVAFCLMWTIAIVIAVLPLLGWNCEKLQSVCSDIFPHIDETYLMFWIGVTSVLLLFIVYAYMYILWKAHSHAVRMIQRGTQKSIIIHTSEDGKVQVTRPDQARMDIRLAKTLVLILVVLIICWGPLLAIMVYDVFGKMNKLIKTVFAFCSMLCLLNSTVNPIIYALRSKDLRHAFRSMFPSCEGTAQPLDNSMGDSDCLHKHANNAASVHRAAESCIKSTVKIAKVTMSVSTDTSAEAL
Experimental: 2. Human CB1 Radioligand Binding Assay
The incubation buffer was composed of 50 mM Tris-HCl pH 7.4, 2.5 mM EDTA, 5 mM MgCl2, 5.0 mg/ml fatty acid free BSA and the wash buffer was composed of 50 mM Tris-HCl pH 7.4, 2.5 mM EDTA, 5 mM MgCl2, 0.5 mg/ml fatty acid free BSA.

[2] = molecular target: T2, human cannabinoid receptor type 2 (Homo sapiens, UniProt P34972); assay: Human CB2 Radioligand Binding Assay; conditions: competition with [3H] CP-55,940; membranes from stably transfected CHO CB2 cells; read-out: CB2 Ligand Binding Asssay EC50
T2 construct: expressed in transfected cells; membrane preparation
T2 sequence (P34972 whole entry): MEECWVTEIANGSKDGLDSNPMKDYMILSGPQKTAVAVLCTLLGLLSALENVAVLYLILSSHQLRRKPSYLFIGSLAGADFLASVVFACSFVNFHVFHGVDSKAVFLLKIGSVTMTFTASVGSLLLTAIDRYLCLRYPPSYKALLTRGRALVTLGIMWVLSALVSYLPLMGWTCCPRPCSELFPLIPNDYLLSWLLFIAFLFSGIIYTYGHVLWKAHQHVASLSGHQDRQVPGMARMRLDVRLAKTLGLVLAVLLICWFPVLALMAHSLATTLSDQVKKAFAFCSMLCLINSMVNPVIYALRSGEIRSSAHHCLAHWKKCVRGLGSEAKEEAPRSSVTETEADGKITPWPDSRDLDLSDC
Method in brief: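 Filtration competition binding on membranes from CHO cells stably expressing human CB2, with [3H]CP-55,940 at its lot-specific Kd, in 50 mM Tris-HCl pH 7.4, EGTA, MgCl2, 5 mg/ml BSA, 1% DMSO; 90 min at 30° C. Compounds at 10 uM single point or dose-response; bound radioactivity by scintillation, 100 nM CP-55,940 as 100% efficacy.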

Selectivity, CB2 vs. CB1 [1] | EC50 [2] [nM] | SMILES
− (− indicates ≦ 10−fold) | > 1000 | COc1ccc(Cc2nc(N3CCCCC3)c3ccccc3n2)cc1OC [Example 335, 2-(3,4-Dimethoxybenzyl)-4-(piperidin-1-yl)quinazoline]
+ (+ indicates > 10−fold) | > 1000 | COc1ccc(Cc2nc(N3CCCCC3)c3ccccc3n2)cc1 [Example 336, 2-(4-Methoxybenzyl)-4-(piperidin-1-yl)quinazoline]
− (− indicates ≦ 10−fold) | < 1000 | Cc1ccccc1Cc1nc(N2CCN(C)CC2)c2ccccc2n1 [Example 337, 2-(2-Methylbenzyl)-4-(4-methylpiperazin-1-yl)quinazoline]
+ (+ indicates > 10−fold) | > 1000 | CCOC(=O)N1CCN(c2nc(C(C)c3ccccc3C)nc3ccccc23)CC1 (stereo not shown) [Example 338, Ethyl 4-(2-(1-o-tolylethyl)quinazolin-4-yl)piperazine-1-carboxylate]
− (− indicates ≦ 10−fold) | > 1000 | c1ccc(Cc2nc(N3CCCCC3)c3ccccc3n2)cc1 [Example 339, 2-Benzyl-4-(piperidin-1-yl)quinazoline]
+ (+ indicates > 10−fold) | > 1000 | CCOC(=O)N1CCN(c2nc(Cc3ccccc3C)nc3ccccc23)CC1 [Example 340, Ethyl 4-(2-(2-methylbenzyl)quinazolin-4-yl)piperazine-1-carboxylate]
− (− indicates ≦ 10−fold) | < 1000 | Cc1ccccc1Cc1nc(N2CCCC2)c2ccccc2n1 [Example 341, 2-(2-Methylbenzyl)-4-(pyrrolidin-1-yl)quinazoline]
− (− indicates ≦ 10−fold) | > 1000 | Cc1ccccc1C(C)c1nc(N2CCCC2)c2ccccc2n1 (stereo not shown) [Example 342, 4-(Pyrrolidin-1-yl)-2-(1-o-tolylethyl)quinazoline]
− (− indicates ≦ 10−fold) | > 1000 | CCOC(=O)N1CCN(c2nc(-c3ccccc3Cl)nc3ccc([N+](=O)[O-])cc23)CC1 [Example 343, Ethyl 4-(2-(2-chlorophenyl)-6-nitroquinazolin-4-yl)piperazine-1-carboxylate]
+ (+ indicates > 10−fold) | < 1000 | CC(=O)N1CCN(c2nc(C(C)c3ccccc3C)nc3ccccc23)CC1 (stereo not shown) [Example 344, 1-(4-(2-(1-o-Tolylethyl)quinazolin-4-yl)piperazin-1-yl)ethanone]
+ (+ indicates > 10−fold) | < 1000 | CCOC(=O)N1CCN(c2nc(Cc3cccc4ccccc34)nc3ccccc23)CC1 [Example 345, Ethyl 4-(2-(naphthalen-1-ylmethyl)quinazolin-4-yl)piperazine-1-carboxylate]
